Source: patent publication US20150105252A1, “SUBSTITUTED PYRAZOLES AS HERBICIDES” (E I DU PONT DE NEMOURS AND COMPANY, priority 2013, published 2015)

Experiments:
barnyardgrass = experiment: Test C preemergence; type: in vivo, Echinochloa crus-galli; conditions: preemergence; for Plant response rating, Barnyardgrass: 125 g ai/ha, scale 0 to 100, 0 = no effect, 100 = complete control
How it was run: (§1)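 In this greenhouse assay, seeded soil (loam plus sand) or emerged seedlings in peat-vermiculite medium were treated with formulated compound. Roughly two weeks later (13–15 days), each species was scored visually relative to controls, from 0 for no effect to 100 for complete control.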

johnsongrass = experiment: Test C postemergence; type: in vivo, Sorghum halepense; conditions: for Plant response rating (scale of 0 to 100 where 0 is no effect and 100 is complete control), Johnsongrass: Postemergence, 31 g ai/ha, visually evaluated after 13 to 15 days; for Johnsongrass plant response rating / Plant response rating, Johnsongrass: postemergence; for Johnsongrass plant response rating: 62 g ai/ha, scale 0 to 100
How it was run: as §1

velvetleaf [1] = experiment: Test C postemergence; type: in vivo, Abutilon theophrasti; conditions: postemergence; for Plant response rating, Velvetleaf: 250 g ai/ha, scale 0 to 100 (0 no effect, 100 complete control); for Velvetleaf plant response rating: scale 0 to 100
How it was run: as §1

wheat = experiment: Test A postemergence; type: in vivo, Triticum aestivum; conditions: Postemergence
How it was run: (§2)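 Seeds were sown in a loam soil–sand blend and given a directed soil spray preemergence; postemergence plants at 2–10 cm, one- to two-leaf stage, were sprayed with compound in non-phytotoxic solvent with surfactant. After about 10 days in a greenhouse, injury was visually rated against untreated controls (0 = no effect, 100 = complete control).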

velvetleaf [2] = experiment: Test C preemergence; type: in vivo, Abutilon theophrasti; conditions: preemergence; for Plant response rating, Velvetleaf: 125 g ai/ha, scale 0 to 100, 0 = no effect, 100 = complete control
How it was run: as §1

morningglory [3] = experiment: Test C postemergence; type: in vivo, Ipomoea coccinea; conditions: for Plant response rating (scale of 0 to 100 where 0 is no effect and 100 is complete control), Morningglory: Postemergence, 31 g ai/ha, visually evaluated after 13 to 15 days; for Morningglory plant response rating / Plant response rating, Morningglory: postemergence; for Morningglory plant response rating: 62 g ai/ha, scale 0 to 100
How it was run: as §1

morningglory [4] = experiment: Test A postemergence; type: in vivo, Ipomoea spp.; conditions: Postemergence
How it was run: as §2

velvetleaf [5] = experiment: Test A postemergence; type: in vivo, Abutilon theophrasti; conditions: Postemergence
How it was run: as §2

sedge, umbrella = experiment: Test B flood; type: in vivo, Cyperus difformis; conditions: 250 g ai/ha, visual rating on 0 to 100 scale (0 no effect, 100 complete control), 13 to 15 days
How it was run: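 Each compound is applied to the floodwater of pots holding 2-leaf seedlings, water standing 3 cm over the soil throughout. Plants stay in a greenhouse 13 to 15 days before visual scoring against controls from 0 (no effect) to 100 (complete control).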

soybean = experiment: Test C preemergence; type: in vivo, Glycine max; conditions: preemergence; for Plant response rating, Soybean: 125 g ai/ha, scale 0 to 100, 0 = no effect, 100 = complete control
How it was run: as §1

lambsquarters = experiment: Test C preemergence; type: in vivo, Chenopodium album; conditions: preemergence; for Plant response rating, Lambsquarters: 125 g ai/ha, scale 0 to 100, 0 = no effect, 100 = complete control
How it was run: as §1

morningglory [6] = experiment: Test C preemergence; type: in vivo, Ipomoea coccinea; conditions: preemergence; for Plant response rating, Morningglory: 125 g ai/ha, scale 0 to 100, 0 = no effect, 100 = complete control
How it was run: as §1

oat, wild = experiment: Test C postemergence; type: in vivo, Avena fatua; conditions: for Plant response rating (scale of 0 to 100 where 0 is no effect and 100 is complete control), Oat, Wild: Postemergence, 31 g ai/ha, visually evaluated after 13 to 15 days; for Oat, Wild plant response rating / Plant response rating, Oat, Wild: postemergence; for Oat, Wild plant response rating: 62 g ai/ha, scale 0 to 100
How it was run: as §1

chickweed = experiment: Test C postemergence; type: in vivo, Stellaria media; conditions: for Plant response rating (scale of 0 to 100 where 0 is no effect and 100 is complete control), Chickweed: Postemergence, 31 g ai/ha, visually evaluated after 13 to 15 days; for Chickweed plant response rating / Plant response rating, Chickweed: postemergence; for Chickweed plant response rating: 62 g ai/ha, scale 0 to 100
How it was run: as §1

[7] = 31 g ai/ha, visual rating, scale 0 to 100 (0 no effect, 100 complete control), 13 to 15 days
[8] = 62 g ai/ha, scale 0 to 100 (0 no effect, 100 complete control), 13 to 15 days
[9] = 250 g ai/ha, scale 0 to 100, 0 is no effect, 100 is complete control
[10] = 250 g ai/ha, scale 0 to 100 (0 no effect, 100 complete control)
[11] = 125 g ai/ha, scale 0 to 100, 0 no effect, 100 complete control
[12] = 125 g ai/ha, 0 to 100 scale, 0 no effect, 100 complete control
[13] = 500 g ai/ha, 0 to 100 scale (0 no effect, 100 complete control)

CCCc1cc(C(=O)NC(C)C)nn1Cc1ccnc(C(F)(F)F)c1 [Compound 186]
Barnyardgrass plant response rating (barnyardgrass; [7]): 100 | Barnyardgrass plant response rating (barnyardgrass; [8]): 100 | Plant response rating, Barnyardgrass (barnyardgrass; 13 to 15 days): 100 | Barnyardgrass plant response rating (barnyardgrass; [9]): 100 | Plant response rating (scale of 0 to 100 where 0 is no effect and 100 is complete control), Johnsongrass (johnsongrass): 5 | Johnsongrass plant response rating (johnsongrass): 5 | Plant response rating, Johnsongrass (johnsongrass; [10]): 95 | Plant response rating, Johnsongrass (johnsongrass; [11]): 5 | Plant response rating, Velvetleaf (velvetleaf [1]): 80 | Velvetleaf plant response rating (velvetleaf [1]): 55 | Wheat plant response rating (wheat; [12]): 0 | Wheat plant response rating (wheat; [13]): 90 | Velvetleaf plant response rating (velvetleaf [2]; [7]): 100 | Velvetleaf plant response rating (velvetleaf [2]; [8]): 100 | Plant response rating, Velvetleaf (velvetleaf [2]; 13 to 15 days): 100 | Velvetleaf plant response rating (velvetleaf [2]; [9]): 100 | Plant response rating (scale of 0 to 100 where 0 is no effect and 100 is complete control), Morningglory (morningglory [3]): 85 | Morningglory plant response rating (morningglory [3]): 85 | Plant response rating, Morningglory (morningglory [3]; [10]): 75 | Plant response rating, Morningglory (morningglory [3]; [11]): 75 | Morningglory plant response rating (morningglory [4]; [12]): 0 | Morningglory plant response rating (morningglory [4]; [13]): 100 | Velvetleaf plant response rating (velvetleaf [5]; [12]): 20 | Velvetleaf plant response rating (velvetleaf [5]; [13]): 100 | Plant response rating, Sedge, Umbrella (sedge, umbrella): 80 | Soybean plant response rating (soybean; [7]): 85 | Soybean plant response rating (soybean; [8]): 65 | Plant response rating, Soybean (soybean; 13 to 15 days): 98 | Soybean plant response rating (soybean; [9]): 98 | Lambsquarters plant response rating (lambsquarters; [7]): 100 | Lambsquarters plant response rating (lambsquarters; [8]): 100 | Plant response rating, Lambsquarters (lambsquarters; 13 to 15 days): 100 | Lambsquarters plant response rating (lambsquarters; [9]): 100 | Morningglory plant response rating (morningglory [6]; [7]): 98 | Morningglory plant response rating (morningglory [6]; [8]): 70 | Plant response rating, Morningglory (morningglory [6]; 13 to 15 days): 100 | Morningglory plant response rating (morningglory [6]; [9]): 100 | Plant response rating (scale of 0 to 100 where 0 is no effect and 100 is complete control), Oat, Wild (oat, wild): 10 | Oat, Wild plant response rating (oat, wild): 35 | Plant response rating, Oat, Wild (oat, wild; [10]): 80 | Plant response rating, Oat, Wild (oat, wild; [11]): 35 | Plant response rating (scale of 0 to 100 where 0 is no effect and 100 is complete control), Chickweed (chickweed): 70 | Chickweed plant response rating (chickweed): 80 | Plant response rating, Chickweed (chickweed; [10]): 100 | Plant response rating, Chickweed (chickweed; [11]): 85

CCCNC(=O)c1cc(OCC)n(Cc2ccnc(C(F)(F)F)c2)n1 [Compound 187]
Barnyardgrass plant response rating (barnyardgrass; [7]): 95 | Barnyardgrass plant response rating (barnyardgrass; [8]): 100 | Plant response rating, Barnyardgrass (barnyardgrass; 13 to 15 days): 100 | Barnyardgrass plant response rating (barnyardgrass; [9]): 100 | Plant response rating (scale of 0 to 100 where 0 is no effect and 100 is complete control), Johnsongrass (johnsongrass): 0 | Johnsongrass plant response rating (johnsongrass): 5 | Plant response rating, Johnsongrass (johnsongrass; [10]): 25 | Plant response rating, Johnsongrass (johnsongrass; [11]): 5 | Plant response rating, Velvetleaf (velvetleaf [1]): 65 | Velvetleaf plant response rating (velvetleaf [1]): 55 | Wheat plant response rating (wheat; [12]): 50 | Wheat plant response rating (wheat; [13]): 80 | Velvetleaf plant response rating (velvetleaf [2]; [7]): 95 | Velvetleaf plant response rating (velvetleaf [2]; [8]): 100 | Plant response rating, Velvetleaf (velvetleaf [2]; 13 to 15 days): 100 | Velvetleaf plant response rating (velvetleaf [2]; [9]): 100 | Plant response rating (scale of 0 to 100 where 0 is no effect and 100 is complete control), Morningglory (morningglory [3]): 70 | Morningglory plant response rating (morningglory [3]): 85 | Plant response rating, Morningglory (morningglory [3]; [10]): 98 | Plant response rating, Morningglory (morningglory [3]; [11]): 80 | Morningglory plant response rating (morningglory [4]; [12]): 40 | Morningglory plant response rating (morningglory [4]; [13]): 100 | Velvetleaf plant response rating (velvetleaf [5]; [12]): 90 | Velvetleaf plant response rating (velvetleaf [5]; [13]): 100 | Plant response rating, Sedge, Umbrella (sedge, umbrella): 90 | Soybean plant response rating (soybean; [7]): 85 | Soybean plant response rating (soybean; [8]): 95 | Plant response rating, Soybean (soybean; 13 to 15 days): 98 | Soybean plant response rating (soybean; [9]): 98 | Lambsquarters plant response rating (lambsquarters; [7]): 100 | Lambsquarters plant response rating (lambsquarters; [8]): 100 | Plant response rating, Lambsquarters (lambsquarters; 13 to 15 days): 100 | Lambsquarters plant response rating (lambsquarters; [9]): 100 | Morningglory plant response rating (morningglory [6]; [7]): 85 | Morningglory plant response rating (morningglory [6]; [8]): 100 | Plant response rating, Morningglory (morningglory [6]; 13 to 15 days): 100 | Morningglory plant response rating (morningglory [6]; [9]): 100 | Plant response rating (scale of 0 to 100 where 0 is no effect and 100 is complete control), Oat, Wild (oat, wild): 10 | Oat, Wild plant response rating (oat, wild): 15 | Plant response rating, Oat, Wild (oat, wild; [10]): 50 | Plant response rating, Oat, Wild (oat, wild; [11]): 30 | Plant response rating (scale of 0 to 100 where 0 is no effect and 100 is complete control), Chickweed (chickweed): 98 | Chickweed plant response rating (chickweed): 70 | Plant response rating, Chickweed (chickweed; [10]): 85 | Plant response rating, Chickweed (chickweed; [11]): 80
